Experimental data as given in US20180360767A1, “BIOCOMPATIBLE PARTICLES AND METHODS OF MAKING AND USE THEREOF” (priority 2015, published 2018).

Experiments:
[1] = in vivo; conditions: mouse, iv, 2 mg/kg
[2] = tested on: doxorubicin-resistant HeLa cells; test: In vitro cytotoxicity on doxorubicin-resistant cells; type: cell-based; conditions: even at a concentration of 5 mg L^−1
Experimental: Next, the cytotoxicity of doxorubicin-loaded nanospheres towards HeLa cells was evaluated with 3-(4, 5-dimethylthiazol-2-yl)-2, 5-diphenyltetrazolium bromide (MTT) assay. HeLa cells (1×10^4 cells per well) were seeded in the 96-well plates. After culture for 24 h, the cells were exposed to the doxorubicin solution and doxorubicin-loaded liquid metal nanoparticles with different concentrations of doxorubicin for 24 h, followed by adding 20 μl of the MTT solution (5 mg mL^−1). After 4 h of incubation, the medium was removed, and the cells were mixed with 150 μl of dimethyl sulfoxide. The absorbance was measured at a test wavelength of 570 nm and a reference wavelength of 630 nm by a microplate reader (Infinite M200 PRO, Tecan).
Next, the in vitro cytotoxicity of doxorubicin loaded ligand-capped liquid metal nanoparticles towards doxorubicin-resistant HeLa cells was investigated.

[3] = Pharmacokinetics, doxorubicin concentration in blood plasma after intravenous injection; conditions: mouse, 2 mg/kg

Compound: COc1cccc2c1C(=O)c1c(O)c3c(c(O)c1C2=O)C[C@@](O)(C(=O)CO)C[C@@H]3O[C@H]1C[C@H](N)[C@H](O)[C@H](C)O1 [Doxorubicin]
- Cmax [1]: 1450 ± 60 ng/mL
- cytotoxicity [2]: did not show any obvious cytotoxicity
- MRT [3]: 2.8 ± 0.61 h
- half-life [3]: 1.11 ± 0.02 h
